Test results as given in patent US20240207297A1 (priority 2021, published 2024).
Values after ≈ are worked out from the molar mass of the structure shown.

What was measured:
[1] = tested on: SARS-CoV-2 early Wuhan strain (CMC-1); assay: microbe, parasite or virus in culture; type: cell-based
VERO E6 cell line = conditions: Tables 1, 2 and FIGS. 3A, 3B
SARS-CoV = conditions: cited from earlier work
[2] = tested on: SARS-CoV-2 (COVID-19 disease); assay: Treatment of SARS-CoV-2 positive patients with oral Nystatin tablets

C[C@@H]1[C@H](O)[C@@H](C)/C=C/C=C/CC/C=C/C=C/C=C/C=C/[C@H](OC2O[C@@H](C)[C@H](O)[C@@H](N)[C@H]2O)C[C@@H]2OC(O)(C[C@@H](O)[C@H](O)CC[C@@H](O)C[C@@H](O)C[C@@H](O)CC(=O)O[C@H]1C)C[C@H](O)[C@H]2C(=O)O (some centres unmarked) [Nystatin, nystatin]
microscopic image of tissue culture at the end of the incubation period ([1]; CMC-1 virus treated with 60 μg/ml nystatin, FIG. 4C): both cells with lysed and intact morphology can be seen | IC50 ([1]; Severe acute respiratory syndrome coronavirus 2, Vero C1008): 60 mg/L (≈ 64.8 µM) | toxicity of nystatin itself to the cultured cells (VERO E6 cell line): toxic to the cultured cells | effectiveness against SARS-CoV in vivo (SARS-CoV): not proved to be effective | course of complaints under treatment ([2]; Patient 1, 3×2 Nystatin tablets (500,000 IU) per day for 10 days): complaints steadily decreased and disappeared after 10 days | course of complaints under treatment ([2]; Patient 2, 3×2 Nystatin tablets (500,000 IU) per day for 15 days): free of complaints | course of complaints under treatment ([2]; Patient 3, 3×2 Nystatin tablets (500,000 IU) per day for 15 days): free of complaints | body temperature ([2]; Patient 4, 9 Apr. 2021 (day 9), one day after start of Nystatin, before 39-39.8° C.): 37.5 °C | body temperature ([2]; Patient 4, 10 Apr. 2021 (day 10)): 36.9 °C | body temperature ([2]; Patient 4, 11 Apr. 2021 (day 11)): 36.3 °C | state after treatment ([2]; Patient 4, Nystatin from 8 Apr. 2021, 3×2 tablets daily, state on 14 Apr. 2021): “post-covid” asymptomatic state
